Experimental findings from patent US8435790B2, “Methods of modulating lipid concentrations in eukaryotic cells” (The Regents of the University of California, priority 2008, dated 2013) are described below.

The subject of experiment [1] is Drosophila S2 cells. The experiment in a line: Cellular triacylglycerol (TG) content of S2 cells. It counts as cell-based. The settings on record: S2 cells incubated with 1 mM oleate for 24 hours; means of three experiments, P<0.05. The protocol: FIG. 1A is series of micrographs of S2 cells incubated for 24 hours without (upper) or with (lower) 1 mM oleate. Staining with BODIPY, phase-contrast image, and overlay are shown. FIG. 1B is a graph showing that oleate-loaded cells have an increased triacylglycerol (TG) content. Cells were incubated as in FIG. 1a and their TG (triglyceride) contents were measured. Results are means and s.d. for three experiments; P<0.05. FIG. 1C is a series of micrographs showing that lipid droplet formation occurs in steps. Single cells were followed by four-dimensional confocal time-lapse photography. Representative maximum projections of three-dimensional stacks at the indicated times are shown. Scale bar is 3 μm.
Lipid measurements. Cells were cultured in 6-well plates (16 μg dsRNAs each well) for 3 days, and then 1 mM oleate was added for 24 hours. Cells were lysed in 50 mM Tris-HCl (pH 7.4), 0.25 M sucrose, and samples (250 μg protein) were assayed for lipids. PC was quantified with a colorimetric method^29. TG content was measured from extracted lipids by TLC^30.

Experiment [2] concerns Drosophila S2 cells. In words: Lipid-droplet formation in S2 cells, BODIPY staining and microscopy. The format is cell-based. The note with it: S2 cells incubated with 1 mM oleate for 24 hours. How it is done:
Lipid-droplet formation in Drosophila Schneider 2 (S2) cells is an excellent system for functional genomic studies with efficient gene inactivation by RNAi^6. In the exemplified methods below, lipid-droplet formation was induced by incubation with 1 mM oleate for 24 hours. […] BODIPY-stained fluorescent signals corresponded to lipid droplets with a red fluorescent protein mCherry^7 fused with LSD1, which localizes exclusively to the surface of lipid droplets^3 (not shown).
Cell culture. Drosophila S2 cells were cultured in Schneider's Drosophila medium (Invitrogen) supplemented with 10% fetal bovine serum and antibiotics (100 unit/ml penicillin and 100 μg/ml streptomycin) at 25° C. as described^32. RNAi treatment of S2 cells were performed as previously described^10. A segment of pBluescript backbone was used as the template for control RNAi (referred as control RNAi thereafter). Transfection of S2 cells was performed using Cellfectin reagent (Invitrogen). Images of live cells were taken using LSM 510 confocal microscope (Carl Zeiss MicroImaging) with a 63× oil immersion lens.
Image analyses. S2 cells (2.7×10^6 cells/ml) were treated with 1 μg dsRNA in 96-well plates for 3 days, and 1 mM oleic acid was added for 24 h. Cells were fixed in 4% paraformaldehyde/PBS (1 h) and stained with DAPI and BODIPY493/503 in PBS (1 h). […]

Each structure is given as a SMILES string.

Take `CCCCCCCC/C=C\CCCCCCCC(=O)O` [oleate, Oleic acid]: in the experiment on Drosophila S2 cells [1], the “cellular triacylglycerol (TG) content” value is “increased sevenfold”. Further, the “lipid droplet size, number, and overall volume (BODIPY staining)” value in the experiment on Drosophila S2 cells [2] is “increased”.
